Experimental data as given in paper PMC6364417, “Kinase inhibitor library screening identifies synergistic drug combinations effective in sensitive and resistant melanoma cells” (Journal of Experimental & Clinical Cancer Research : CR, 2019).

Key:
Test in all cases: Kinase inhibitor library screening, PrestoBlue cell viability, 1 or 10 μM, 72 h
[1] = test system: A375 cells (parental); conditions: A375 Parental, 72 h
Method: (§1) After 72 h of treatment, cell viability was assessed using the PrestoBlue Cell Viability Reagent (ThermoFisher Scientific). Measurements were performed with the CLARIOstar Monochromator microplate reader (BMG Labtech).
(§2) Kinase inhibitor library screening. […] Each cell line was treated in its sensitive form (parental), and also as 2 resistant derivatives, which were made resistant to either Vemurafenib (XP) or Dabrafenib (GP). Drugs were added at 2 different concentrations, 1 and 10 μM, for 72 h and cell viability was assessed using the PrestoBlue Cell Viability assay. Results are depicted as % viability compared to untreated cells. Each cell line was analyzed at least in duplicate. […] (XLSX 95 kb)

[2] = test system: IGR37-XP cells (Vemurafenib-resistant); conditions: IGR37 XP, 72 h; for cell viability, IGR37 XP, 1μΜ / Cell viability in kinase inhibitor library screening, IGR37 XP, 1μΜ: in %
Method: as §1, §2

[3] = test system: IGR37-GP cells (Dabrafenib-resistant); conditions: IGR37 GP, 72 h
Method: as §1, §2

[4] = test system: A375-XP cells (Vemurafenib-resistant); conditions: A375 XP, 72 h
Method: as §1, §2

[5] = test system: 501Mel-XP cells (Vemurafenib-resistant); conditions: 501Mel XP, 72 h, in %
Method: as §1, §2

[6] = test system: IGR37 cells (parental); conditions: IGR37 Parental, 72 h, in %
Method: as §1, §2

[7] = test system: A375-GP cells (Dabrafenib-resistant); conditions: A375 GP, 72 h
Method: as §1, §2

[8] = test system: 501Mel-GP cells (Dabrafenib-resistant); conditions: 501Mel GP, 72 h, in %
Method: as §1, §2

[9] = test system: 501Mel cells (parental); conditions: 501Mel Parental, 72 h, in %
Method: as §1, §2

Structure (SMILES) | cell viability, A375 Parental, 10μΜ ([1]; in %) | cell viability, IGR37 XP, 10μΜ [2] [%] | cell viability, IGR37 XP, 1μΜ [2] | cell viability, IGR37 GP, 10μΜ [3] [%] | cell viability, IGR37 GP, 1μΜ ([3]; 1μΜ, in %) | cell viability, A375 XP, 1μΜ ([4]; 1μΜ, in %) | cell viability, 501Mel XP, 1μΜ [5] | cell viability, 501Mel XP, 10μΜ [5] | cell viability, IGR37 Parental, 10μΜ [6] | cell viability, A375 GP, 1μΜ ([7]; 1μΜ, in %) | cell viability, 501Mel GP, 1μΜ [8] | cell viability, 501Mel GP, 10μΜ [8] | Cell viability in kinase inhibitor library screening, A375 Parental, 10μΜ [1] | Cell viability in kinase inhibitor library screening, A375 Parental, 1μΜ ([1]; 1μΜ) | Cell viability in kinase inhibitor library screening, IGR37 XP, 10μΜ [2] [%] | Cell viability in kinase inhibitor library screening, IGR37 XP, 1μΜ [2] | Cell viability in kinase inhibitor library screening, IGR37 GP, 10μΜ [3] [%] | Cell viability in kinase inhibitor library screening, A375 XP, 10μΜ ([4]; 10μΜ) | Cell viability in kinase inhibitor library screening, 501Mel XP, 1μΜ [5] | Cell viability in kinase inhibitor library screening, 501Mel XP, 10μΜ [5] | further results
C[C@@H]1CCN(C(=O)CC#N)C[C@@H]1N(C)c1ncnc2[nH]ccc12 [Tofacitinib (CP-690550, Tasocitinib)] | 97.3 | 71.2 | 96.7 | 95.3 | 97.9 | 103.8 | 94.3 | 92.6 | 104.5 | 103.9 | 104.8 | 94.8 | – | – | – | – | – | – | – | – | cell viability, A375 Parental, 1μΜ ([1]; 1μΜ, in %): 104.5; cell viability, A375 XP, 10μΜ ([4]; 10μΜ, in %): 103.6; cell viability, IGR37 Parental, 1μΜ ([6]; 1μΜ): 108.6; cell viability, A375 GP, 10μΜ ([7]; 10μΜ, in %): 97.7
Cc1nc(NC(=O)N2CCC[C@H]2C(N)=O)sc1-c1csc(C(C)(C)C)n1 [A66] | – | – | – | – | – | – | – | – | – | – | – | – | 72.4 | 98.3 | 41.5 | 91.5 | 75 | 75.9 | 102.8 | 65.7 | Cell viability in kinase inhibitor library screening, IGR37 GP, 1μΜ ([3]; 1μΜ, in %): 91.2; Cell viability in kinase inhibitor library screening, A375 XP, 1μΜ ([4]; 1μΜ): 92.2; Cell viability in kinase inhibitor library screening, A375 GP, 1μΜ ([7]; 1μΜ): 93.1; Cell viability in kinase inhibitor library screening, A375 GP, 10μΜ ([7]; 10μΜ): 64.2; Cell viability in kinase inhibitor library screening, 501Mel GP, 1μΜ [8]: 92.2; Cell viability in kinase inhibitor library screening, 501Mel GP, 10μΜ [8]: 75.2; Cell viability in kinase inhibitor library screening, 501Mel Parental, 1μΜ [9]: 94.4; Cell viability in kinase inhibitor library screening, 501Mel Parental, 10μΜ [9]: 85.2
C[C@@H]1CCN(C(=O)CC#N)C[C@@H]1N(C)c1ncnc2[nH]ccc12.O=C(O)CC(O)(CC(=O)O)C(=O)O [Tofacitinib citrate (CP-690550 citrate)] | 93.7 | 83.2 | 104.3 | 94.9 | 98.3 | 103.3 | 94.0 | 90.7 | 107.1 | 103.6 | 103.5 | 93.7 | – | – | – | – | – | – | – | – | –
O=c1c(O)c(-c2ccc(O)c(O)c2)oc2cc(O)cc(O)c12 [Quercetin (Sophoretin)] | – | – | – | – | – | – | – | – | – | – | – | – | 94.2 | 97.7 | 58.7 | 99.1 | 78.8 | 96.9 | 90.4 | 65.0 | Cell viability in kinase inhibitor library screening, A375 GP, 10μΜ ([7]; 10μΜ): 87.9; Cell viability in kinase inhibitor library screening, 501Mel GP, 1μΜ [8]: 98.5; Cell viability in kinase inhibitor library screening, 501Mel GP, 10μΜ [8]: 87.4; Cell viability in kinase inhibitor library screening, 501Mel Parental, 1μΜ [9]: 99.7; Cell viability in kinase inhibitor library screening, 501Mel Parental, 10μΜ [9]: 94.0
